Experimental data published in patent US10562891B2, “Quinazolinones as PARP14 inhibitors” (Ribon Therapeutics Inc., priority 2017, dated 2020).
pIC50: −log10 of the molar value. Counter-ions that a name gives are not always drawn.

Biological target: catalytic domain of human PARP14 (Homo sapiens (Human), UniProt Q460N5)
Test: Enzymatic assay for inhibition of PARP14 (DELFIA, auto-modification with biotin-NAD)
Format: biochemical
Conditions: auto-modification of PARP14 by biotin-NAD, 50 nM PARP14, 3 μM biotin-NAD
Method in brief: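 His-TEV-tagged PARP14 catalytic domain (50 nM) preincubated with compound 30 min at 25 °C, then auto-modified with 3 μM biotin-NAD for 3 h at 25 °C in HEPES pH 8 buffer with DTT. IC50 from 4-parameter fit, rucaparib and DMSO as controls.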

catalytic domain of human PARP14, sequence (Q460N5 1611-1801): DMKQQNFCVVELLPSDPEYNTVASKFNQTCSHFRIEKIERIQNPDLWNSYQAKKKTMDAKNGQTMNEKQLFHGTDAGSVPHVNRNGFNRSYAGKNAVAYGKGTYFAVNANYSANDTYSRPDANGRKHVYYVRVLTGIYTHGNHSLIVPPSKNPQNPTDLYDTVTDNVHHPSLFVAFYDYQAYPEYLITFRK

SMILES | pIC50
Cc1cccc2c(=O)[nH]c(CSC3CCN(C[C@@H](O)CO)CC3)nc12 [Example 160, (R)-2-(((1-(2,3-Dihydroxypropyl)piperidin-4-yl)thio)methyl)-8-methyl quinazolin-4(3H)-one Trifluoroacetate] | 5.00 to 6.00
Cc1cccc2c(=O)[nH]c(CSC3CCN(C[C@@H]4CCCN4)CC3)nc12 [Example 161, (S)-8-Methyl-2-(((1-(pyrrolidin-2-ylmethyl)piperidin-4-yl)thio)methyl) quinazolin-4(3H)-one Hydrochloride] | 5.00 to 6.00
Cc1cccc2c(=O)[nH]c(CSC3CCN(CCO)CC3)nc12 [Example 162, 2-(((1-(2-Hydroxyethyl)piperidin-4-yl)thio)methyl)-8-methylquinazolin-4(3H)-one] | > 6.00
Cc1cccc2c(=O)[nH]c(CSC3CCN(CCN)CC3)nc12 [Example 163, 2-(((1-(2-Aminoethyl)piperidin-4-yl)thio)methyl)-8-methylquinazolin-4(3H)-one dihydrochloride] | 5.00 to 6.00
Cc1cccc2c(=O)[nH]c(CSC3CCN(CCNC(=O)c4ccccn4)CC3)nc12 [Example 164, N-(2-(4-(((8-Methyl-4-oxo-3,4-dihydroquinazolin-2-yl)methyl)thio)piperidin-1-yl)ethyl)picolinamide] | 5.00 to 6.00
Cc1cccc2c(=O)[nH]c(CSC3CCN(CCCN)CC3)nc12 [Example 165, 2-(((1-(3-Aminopropyl)piperidin-4-yl)thio)methyl)-8-methylquinazolin-4(3H)-one dihydrochloride] | > 6.00
Cc1cccc2c(=O)[nH]c(CSC3CCN(C(=O)CN)CC3)nc12 [Example 166, 2-(((1-Glycylpiperidin-4-yl)thio)methyl)-8-methylquinazolin-4(3H)-one Hydrochloride] | > 6.00
Cc1cccc2c(=O)[nH]c(CSC3CCN(C(=O)CCN)CC3)nc12 [Example 167, 2-(((1-(3-Aminopropanoyl)piperidin-4-yl)thio)methyl)-8-methylquinazolin-4(3H)-one Hydrochloride] | 5.00 to 6.00
Cc1cccc2c(=O)[nH]c(CSC3CCN(C(=O)CCN(C)C)CC3)nc12 [Example 168, 2-(((1-(3-(Dimethylamino)propanoyl)piperidin-4-yl)thio)methyl)-8-methyl quinazolin-4(3H)-one] | 5.00 to 6.00
Cc1cccc2c(=O)[nH]c(CSC3CCN(C(=O)[C@H](N)CCCNC(=N)N)CC3)nc12 [Example 169, (R)-1-(4-Amino-5-(4-(((8-methyl-4-oxo-3,4-dihydroquinazolin-2-yl)methyl)thio)piperidin-1-yl)-5-oxopentyl)guanidine Trihydrochloride] | > 6.00
Cc1cccc2c(=O)[nH]c(CSC3CCN(C(=O)[C@@H](N)CCCNC(=N)N)CC3)nc12 [Example 170, (S)-1-(4-Amino-5-(4-(((8-methyl-4-oxo-3,4-dihydroquinazolin-2-yl)methyl)thio)piperidin-1-yl)-5-oxopentyl)guanidine Trihydrochloride] | > 6.00
Cc1cccc2c(=O)[nH]c(CSC3CCN(C(=O)[C@@H](N)CCCCN)CC3)nc12 [Example 171, 2-(((1-(L-Lysyl)piperidin-4-yl)thio)methyl)-8-methylquinazolin-4(3H)-one Dihydrochloride] | > 6.00
Cc1cccc2c(=O)[nH]c(CSC3CCN(C(=O)[C@H](N)CCCCN)CC3)nc12 [Example 172, 2-(((1-(D-Lysyl)piperidin-4-yl)thio)methyl)-8-methylquinazolin-4(3H)-one Dihydrochloride] | > 6.00
Cc1cccc2c(=O)[nH]c(CSC3CCN(C(=O)CCc4ccccn4)CC3)nc12 [Example 173, 8-Methyl-2-(((1-(3-(pyridin-2-yl)propanoyl)piperidin-4-yl)thio)methyl) quinazolin-4(3H)-one] | 5.00 to 6.00
Cc1cccc2c(=O)[nH]c(CSC3CCN(S(C)(=O)=O)CC3)nc12 [Example 174, 8-Methyl-2-(((1-(methylsulfonyl)piperidin-4-yl)thio)methyl)quinazolin-4(3H)-one] | > 6.00
Cc1cccc2c(=O)[nH]c(CSC3CCN(S(=O)(=O)c4ccccn4)CC3)nc12 [Example 175, 8-Methyl-2-(((1-(pyridin-2-ylsulfonyl)piperidin-4-yl)thio)methyl)quinazolin-4(3H)-one] | 5.00 to 6.00
O=c1[nH]c(CSC2CCNCC2)nc2cc(NC3CCCC3)cc(F)c12 [Example 176, 7-(Cyclopentylamino)-5-fluoro-2-((piperidin-4-ylthio)methyl)quinazolin-4(3H)-one Hydrochloride] | > 6.00
O=c1[nH]c(CSC2CCNCC2)nc2cc(NC3CCC3)cc(F)c12 [Example 177, 7-(Cyclobutylamino)-5-fluoro-2-((piperidin-4-ylthio)methyl)quinazolin-4(3H)-one Hydrochloride] | > 6.00
CC(=O)NC[C@H]1CC[C@H](SCc2nc3c(C)cccc3c(=O)[nH]2)CC1 [Example 178, N-(((trans)-4-(((8-methyl-4-oxo-3,4-dihydroquinazolin-2-yl)methyl)thio)cyclohexyl)methyl)acetamide] | 5.00 to 6.00
O=c1[nH]c(CSC2CCNCC2)nc2cc(NC3CCCC3)ccc12 [Example 179, 7-(cyclopentylamino)-2-((piperidin-4-ylthio)methyl)quinazolin-4(3H)-one] | > 6.00
O=c1[nH]c(CS[C@H]2CC[C@H](CO)CC2)nc2cc(NC3CCCC3)ccc12 [Example 180, 7-(cyclopentylamino)-2-((((1R,4R)-4-(hydroxymethyl)cyclohexyl)thio)methyl)quinazolin-4(3H)-one] | > 6.00
Cc1cccc2c(=O)[nH]c(CS[C@H]3CC[C@H](CCN)CC3)nc12 [Example 181, 2-((((trans)-4-(2-aminoethyl)cyclohexyl)thio)methyl)-8-methylquinazolin-4(3H)-one] | > 6.00
Cc1cccc2c(=O)[nH]c(CSC3CC(CN)C3)nc12 (stereo not shown) [Example 182, 2-(((3-(aminomethyl)cyclobutyl)thio)methyl)-8-methylquinazolin-4(3H)-one] | 5.00 to 6.00
O=c1[nH]c(CSC2CCOCC2)nc2cc(NC3CCCC3)cc(F)c12 [Example 184, 7-(cyclopentylamino)-5-fluoro-2-(((tetrahydro-2H-pyran-4-yl)thio)methyl)quinazolin-4(3H)-one] | > 6.00
O=c1[nH]c(CS[C@H]2CC[C@H](O)CC2)nc2cc(NC3CCCC3)cc(F)c12 [Example 185, 7-(cyclopentylamino)-5-fluoro-2-((((1R,4R)-4-hydroxycyclohexyl)thio)methyl)quinazolin-4(3H)-one] | > 6.00
O=c1[nH]c(CSC2CCOCC2)nc2nc(NC3CCCC3)ccc12 [Example 186, 7-(cyclopentylamino)-2-(((tetrahydro-2H-pyran-4-yl)thio)methyl)pyrido[2,3-d]pyrimidin-4(3H)-one] | > 6.00
O=c1[nH]c(CSC2CCOCC2)nc2cc(N[C@H]3CCCOC3)ccc12 [Example 187, (S)-7-((tetrahydro-2H-pyran-3-yl)amino)-2-(((tetrahydro-2H-pyran-4-yl)thio)methyl)quinazolin-4(3H)-one] | > 6.00
O=c1[nH]c(CSC2CCOCC2)nc2cc(NC3CCCC3)cnc12 [Example 188, 7-(cyclopentylamino)-2-(((tetrahydro-2H-pyran-4-yl)thio)methyl)pyrido[3,2-d]pyrimidin-4(3H)-one] | < 5.00
